# Measurements taken from publication PMC6315362, “Cytotoxic Potential of the Novel Horseshoe Crab Peptide Polyphemusin III” (Marine Drugs, 2018).
# Where a SMILES comes first, the peptide text is derived from it. Bridges are numbered along the chain shown (N, C = ends).
# Experiments:
# [1] = tested on: Gram-negative and Gram-positive bacteria; conditions: natural and synthetic peptides; cited from earlier work
# Procedure: Our experimental data for the obtained recombinant PM I are in line with those obtained earlier for synthetic PM I against Gram-negative and Gram-positive bacteria (with reported MICs not exceeding 1 μM).
# HL-60 cells [2] = assay: Annexin V-FITC/propidium iodide double staining and flow cytometry; assay type: cell-based, human; conditions: for double-stained cells, Q2-2 (AV+PI+, late apoptotic/necrotic): 4 h
# Excerpt: To further investigate the effect of PM III on human cells, we performed annexin V-FITC/propidium iodide double staining with subsequent flow cytometric analysis. Annexin V-FITC binds to phosphatidylserine, which is exposed on the outer leaflet of the cellular plasma membrane at the initial stages of apoptosis, whereas propidium iodide (PI) preferentially stains nuclei of dead cells. Therefore, a combination of annexin V-FITC and PI assays allows differentiation between early apoptotic and late apoptotic/necrotic cell populations. PM III was used at two final concentrations of 2.5 and 5 μM. In order to elucidate the predominant mechanism of the PM III action, we applied a widely used caspase inhibitor, Z-VAD-FMK [23].
# Cell death analysis with fluorescein isothiocyanate conjugated annexin V (annexin V-FITC)/propidium iodide double staining and dead cells counting with flow cytometry were performed 4 h after addition of polyphemusin III up to a final concentration of 2.5 or 5 μM. The Annexin V-FITC Apoptosis Detection Kit (BD Biosciences, Franklin Lakes, NJ, USA) was used according to the manufacturer’s protocol on a NovoCyte flow cytometer (ACEA Biosciences, San Diego, CA, USA). Each experiment was performed in triplicate. The apoptosis inducer camptothecin (Sigma-Aldrich, St. Louis, MO, USA) and the general caspase inhibitor, Z-VAD-FMK (BD Biosciences, Franklin Lakes, NJ, USA), were used. All flow cytometry experiments were performed twice.
# [3] = tested on: Caspase cascade pathway in HL-60 cells; assay: Gene expression profiling and Oncobox pathway analysis; assay type: cell-based, human; conditions: versus intact cells, Oncobox
# Procedure: To get a deeper molecular insight into the mechanisms of cell death induced by PM III, we profiled gene expression in the PM III treated (1.25, 2.5, and 5 µM) and intact HL-60 cells. Gene expression profiles were further analyzed using the Oncobox bioinformatical platform to measure activation levels of 376 intracellular signaling pathways. We found a significant inhibition of the Caspase cascade (Figure 6), while the TRAF (tumor necrosis factor receptor (TNF-R)-associated factor) pathway was strongly activated (Figure 7) following the PM III treatment. An additional line of evidence for the non-apoptotic mechanism of the PM III mediated activity was provided by the PTEN pathway. […] The activation levels of all signaling pathways profiled in this study and case-to-normal ratios for the respective genes are shown in Supplementary Table S1. Taken together, these facts rather argue for a non-apoptotic mode of the PM III action.
# RNA extraction was performed immediately before preparation of sequencing libraries using a QIAGEN RNeasy Kit (Qiagen, Venlo, Netherlands) following the manufacturer’s protocol. Then, the RNA Integrity Number (RIN) was measured using an Agilent 2100 bio-Analyzer. Agilent RNA 6000 Nano or Qubit RNA Assay Kits were used to measure RNA concentration. A KAPA RNA Hyper with RiboErase (KAPA Biosystems, Wilmington, MA, USA) kit was used for further depletion of ribosomal RNA. […] Library concentrations and quality were measured using a Qubit ds DNA HS Assay kit (Life Technologies, Carlsbad, CA, USA) and Agilent Tapestation (Agilent, Santa Clara, CA, USA). RNA sequencing was performed using Illumina HiSeq 3000 equipment for single-end sequencing, 50 bp read length, for approximately 30 million raw reads per each sample. […]
# The SABiosciences knowledge base was used to determine structures of intracellular molecular pathways as described previously. […] CNRs were calculated as the ratios of expression levels of a gene in the experimental samples to average expression levels in the control samples. […]
# HL-60 cells [4] = assay: Lactate dehydrogenase (LDH)-release assay; assay type: cell-based, human; conditions: HL-60, 1 h of incubation, 1.56–25 μM, RPMI serum-free medium; two independent series of triplicated experiments
# Procedure: The loss of membrane integrity, detected by trypan blue exclusion assay and annexin V-FITC/propidium iodide double staining, was also evaluated by lactate dehydrogenase (LDH)-release. The cytosolic enzyme LDH is released upon cell lysis and therefore can be a marker of cell integrity. The percentage of LDH-leakage from cells enables evaluation of direct cell lysis.
# The LDH-release assay (CytoTox 96 Non-Radioactive Cytotoxicity Assay; Promega Corporation, Madison, WI, USA) was performed according to the manufacturer’s protocol. Suspension HL-60 cells (4 × 10^4) were seeded into a 96-well plate in triplicate and incubated for 1 h with various concentrations of polyphemusin III at 100 μL per well in RPMI serum-free medium. Untreated cells served as a control for spontaneous LDH-release and cells treated with 1% Triton X-100 were used as a control for maximal LDH-release. Absorbance was measured at 490 nm using a microplate reader (Eppendorf, Hamburg, Germany). Percent LDH-release was calculated using the following Equation (2):[(experimental LDH-release − spontaneous LDH-release)/(maximal LDH-release − spontaneous LDH-release)] × 100(2)
# The dose response curve shown is an average of two independent experiments.
smiles,measurement,setting,value
"CC[C@H](C)[C@@H]1NC(=O)CNC(=O)[C@H](CCCNC(=N)N)NC(=O)[C@H](Cc2ccc(O)cc2)NC(=O)[C@@H]2CSSC[C@H](NC1=O)C(=O)N[C@@H](Cc1ccc(O)cc1)C(=O)N[C@@H](CCCNC(=N)N)C(=O)N[C@@H](CCCNC(=N)N)C(=O)N[C@H](C(=O)N[C@@H](CCCNC(=N)N)C(=O)O)CSSC[C@H](NC(=O)[C@H](Cc1c[nH]c3ccccc13)NC(=O)[C@@H](N)CCCCN)C(=O)N[C@@H](Cc1ccccc1)C(=O)N[C@@H](CCCNC(=N)N)C(=O)N[C@@H](C(C)C)C(=O)N2 [TP I, tachyplesin I] (H-KWCFRVCYRGICYRRCR-OH; disulfide 3-16, 7-12 (inferred); N-terminus assumed)",MICs,[1],exceeding 1 μM
"CC(C)[C@@H]1NC(=O)[C@H](CCCNC(=N)N)NC(=O)[C@H](Cc2ccccc2)NC(=O)[C@@H](NC(=O)[C@H](Cc2c[nH]c3ccccc23)NC(=O)[C@H](CCCNC(=N)N)NC(=O)[C@@H](N)CCCNC(=N)N)CSSC[C@@H](C(=O)N[C@@H](CCCNC(=N)N)C(=O)O)NC(=O)[C@H](CCCCN)NC(=O)[C@H](CCCNC(=N)N)NC(=O)[C@H](Cc2ccc(O)cc2)NC(=O)[C@@H]2CSSC[C@H](NC1=O)C(=O)N[C@@H](Cc1ccc(O)cc1)C(=O)N[C@@H](CCCCN)C(=O)NCC(=O)N[C@@H](Cc1ccccc1)C(=O)N2 [PM II, polyphemusin II] (H-RRWCFRVCYKGFCYRKCR-OH; disulfide 4-17, 8-13 (inferred); N-terminus assumed)",MICs,[1],exceeding 1 μM
"CC[C@H](C)[C@@H]1NC(=O)CNC(=O)[C@H](CCCNC(=N)N)NC(=O)[C@H](Cc2ccc(O)cc2)NC(=O)[C@@H]2CSSC[C@H](NC1=O)C(=O)N[C@@H](Cc1ccc(O)cc1)C(=O)N[C@@H](CCCNC(=N)N)C(=O)N[C@@H](CCCCN)C(=O)N[C@H](C(=O)N[C@@H](CCCNC(=N)N)C(=O)O)CSSC[C@H](NC(=O)[C@H](Cc1c[nH]c3ccccc13)NC(=O)[C@@H](N)CCCNC(=N)N)C(=O)N[C@@H](Cc1ccccc1)C(=O)N[C@@H](CCCNC(=N)N)C(=O)N[C@@H](C(C)C)C(=O)N2 [TP II, tachyplesin II] (H-RWCFRVCYRGICYRKCR-OH; disulfide 3-16, 7-12 (inferred); N-terminus assumed)",MICs,[1],exceeding 1 μM
"CC(C)[C@@H]1NC(=O)[C@H](CCCNC(=N)N)NC(=O)[C@H](Cc2ccccc2)NC(=O)[C@@H](NC(=O)CNC(=O)[C@H](CCCNC(=N)N)NC(=O)[C@@H](N)CCCNC(=N)N)CSSC[C@@H](C(=O)N[C@@H](CCCNC(=N)N)C(=O)O)NC(=O)[C@H](CCCNC(=N)N)NC(=O)[C@H](CCC(N)=O)NC(=O)[C@H](Cc2ccccc2)NC(=O)[C@@H]2CSSC[C@H](NC1=O)C(=O)N[C@@H](Cc1ccc(O)cc1)C(=O)N[C@@H](CCCNC(=N)N)C(=O)NCC(=O)N[C@@H](Cc1ccccc1)C(=O)N2 [PM III, polyphemusin III] (H-RRGCFRVCYRGFCFQRCR-OH; disulfide 4-17, 8-13 (inferred); N-terminus assumed)","double-stained cells, Q2-2 (AV+PI+, late apoptotic/necrotic)","HL-60 cells [2]; HL-60, 2.5 µM, 50 μM Z-VAD-FMK added",> 30%
same,"double-stained cells, Q2-2 (AV+PI+, late apoptotic/necrotic)","HL-60 cells [2]; HL-60, 2.5 µM, no Z-VAD-FMK",> 40%
same,"double-stained cells, Q2-2 (AV+PI+, late apoptotic/necrotic)","HL-60 cells [2]; HL-60, 5 µM, 50 μM Z-VAD-FMK added",> 70%
same,"double-stained cells, Q2-2 (AV+PI+, late apoptotic/necrotic)","HL-60 cells [2]; HL-60, 5 µM, no Z-VAD-FMK",> 80%
same,influence of the caspase inhibitor Z-VAD-FMK on the effect of the substance (annexin V-FITC/PI staining),"HL-60 cells [2]; HL-60, 4 h of incubation, 50 μM Z-VAD-FMK",almost not affected
same,Caspase Cascade: PAS (pathway activation strength),"[3]; HL-60, 1.25 μM",-13.08
same,Caspase Cascade: PAS (pathway activation strength),"[3]; HL-60, 2.5 μM",-13.96
same,Caspase Cascade: PAS (pathway activation strength),"[3]; HL-60, 5 μM",-16.64
same,LDH-release (cell lysis),HL-60 cells [4],concentration-dependent lysis
"CC(C)[C@@H]1NC(=O)[C@H](CCCNC(=N)N)NC(=O)[C@H](Cc2ccccc2)NC(=O)[C@@H](NC(=O)[C@H](Cc2c[nH]c3ccccc23)NC(=O)[C@H](CCCNC(=N)N)NC(=O)[C@@H](N)CCCNC(=N)N)CSSC[C@@H](C(=O)N[C@@H](CCCNC(=N)N)C(=O)O)NC(=O)[C@H](CCCCN)NC(=O)[C@H](CCCNC(=N)N)NC(=O)[C@H](Cc2ccc(O)cc2)NC(=O)[C@@H]2CSSC[C@H](NC1=O)C(=O)N[C@@H](Cc1ccc(O)cc1)C(=O)N[C@@H](CCCNC(=N)N)C(=O)NCC(=O)N[C@@H](Cc1ccccc1)C(=O)N2 [PM I, polyphemusin I] (H-RRWCFRVCYRGFCYRKCR-OH; disulfide 4-17, 8-13 (inferred); N-terminus assumed)",MICs,[1],exceeding 1 μM
